From publication PMC5974752, “Bax/Tubulin/Epithelial-Mesenchymal Pathways Determine the Efficacy of Silybin Analog HM015k in Colorectal Cancer Cell Growth and Metastasis” (Frontiers in Pharmacology, 2018)

Experiments:
LOVO = test: MTT assay; format: cell-based; conditions: Homo sapiens, 72 h incubation, mean ± SD of three experiments, read-out: IC50 ± SD, Colon LOVO
Procedure: (§1) The 3-(4,5-dimethylthiazol-2-yl)-2,5-diphenyltetrazolium bromide (MTT) assay was used to determine the sensitivity of the different CRC cells to the novel silybin derivatives (Hussein et al., [2017]; Manivannan et al., [2017]). The cells were seeded at a density of 4,000–5,000 cells/well in 96 well plates and incubated with serial dilutions of the compounds (0, 0.1, 0.3, 1, 3, 10, 30, and 100 μM). The MTT dye (4 mg/ml) was added after 72 h of incubation and incubated with the cells for an additional 4 h at 37°C. Following incubation, the media was discarded and the formazan crystals were dissolved by adding 100 μL of DMSO to each well. A DTX 880 multimode detector (Beckman Coulter Life, Indianapolis IN, USA) was used to determine the absorbance readings at a wavelength of 570 nm. The IC50 values were determined based on 3 separate experiments, with each experiment done in triplicate. The selectivity of the compounds was determined by comparing their cytotoxicity for CRC to normal epithelial cell lines (CHO, and CRL1459).

S1 = test: MTT assay; format: cell-based; conditions: Homo sapiens, 72 h incubation, mean ± SD of three experiments, read-out: IC50 ± SD, Colon S1
Procedure: as §1

[1] = test system: CRC cell lines (HCT116, LOVO, and S1); test: MTT assay, CRC cell lines together; format: cell-based, human; conditions: MTT
Procedure: as §1

HCT116 cells = test: CellTiter-Glo luminescent assay (ATP content); format: cell-based; conditions: Homo sapiens, HCT-116, data not shown, read-out: IC50, ATP depletion
Procedure: Subsequently, we conducted experiments to determine if compound 15k produced a time-dependent effect on cell death. […] The HCT116 cells had intense fluorescence over time compared to the cells incubated with vehicle, with a significant difference in the number of dead cells after 24 h of incubation with 2 μM of 15k. […] The cytotoxicity of 15k and 15j in HCT116 cells were further determined using a more homogeneous CellTiter-Glo® luminescent cell based assay that measures the ATP content in the metabolically active cells.

caspases 3 and 7 = test: IncuCyte caspase-3/7 real time apoptosis; format: cell-based, human
Procedure: For real time quantification of apoptosis induction, the fluorescent Caspase 3/7 and Annexin V red reagents, with an excitation maximum of 500 and 593 nm and an emission maximum of 530 and 614 nm, respectively, were used. The HCT116 cells were seeded at a density of 1,000 cell/well and allowed to grow overnight. The next day, compound 15k at 0, 2, 4, and 8μM was prepared and added, directly followed by the caspase 3/7 reagent at final concentration of 5μM or annexin V red reagent in final dilution of 1: 200. The cells were then incubated in IncuCyte Zoom live cell imaging and pictures were taken every 2 h for up to 50 h and analyzed using the integrated software. The IncuCyte® Caspase-3/7 apoptosis assay reagent couples the activated caspase-3/7 recognition motif (DEVD) to NucView™ 488, a DNA intercalating dye to enable quantification of apoptosis over time. Caspase-3/7 assay reagent is non-perturbing to cell growth and morphology. When added to cell culture medium, this inert, non-fluorescent substrate crosses the cell membrane, where it is cleaved by activated caspase-3/7, resulting in the release of the DNA dye and green fluorescent staining of nuclear DNA.

[2] = test system: HCT116 Bak knockout (Bak–/–) cells; test: MTT assay, knockout cells; format: cell-based; conditions: Homo sapiens, HCT-116, not significantly different from WT
Procedure: (§2) Colorectal cancer cell lines, including HCT116, LOVO, and S1, with varying drug sensitivity and invasiveness, were grown as adherent monolayer in culturing flasks. Normal epithelial cells lines (Chinese hamster ovarian: CHO, normal epithelial colon: CRL1459) were also grown. Both cancerous and normal cell lines were kindly obtained from the late Dr. Gary Kruh (University of Chicago, Illinois). In addition, CRC HCT116 Bax knockout (Bax–/–) cells were kindly provided by Dr. Bert Vogelstein (Johns Hopkins, Baltimore) (Zhang et al., [2000]), Bak knockout (Bak–/–) and Bax-Bak double knockout (Bax–/– and Bak–/–) cells were kindly provided by Richard Youle (NIH, […], MD) (Wang and Youle, [2012]). DMEM, with 4.5 g of glucose, was supplemented with 10% fetal bovine serum (FBS) and 1% penicillin/streptomycin and used for all cell lines. The cells were cultured in a humidified incubator containing 5% CO2 at 37°C. All of cells were checked and confirmed to be free of fungi and mycoplasma. Cells were obtained from frozen stocks and cell passaging (up to P4) was performed at 80% cell confluency by PBS and trypsin + 2.2 mM EDTA.
as §1, with “Following incubation, the media was discarded and the formazan crystals were dissolved by adding 100 μL of DMSO to each well.” left out

[3] = test system: HCT116 Bax knockout (Bax–/–) cells; test: MTT assay, knockout cells; format: cell-based; conditions: Homo sapiens, HCT-116, p < 0.05 vs WT
Procedure: as §2
as §1, with “Following incubation, the media was discarded and the formazan crystals were dissolved by adding 100 μL of DMSO to each well.” left out

[4] = test system: HCT116 Bax-Bak double knockout (DKO) cells; test: MTT assay, knockout cells; format: cell-based; conditions: Homo sapiens, HCT-116, p < 0.05 vs WT
Procedure: as §2
as §1, with “Following incubation, the media was discarded and the formazan crystals were dissolved by adding 100 μL of DMSO to each well.” left out

COLO 205 cell line = test: Transwell migration assay; format: cell-based; conditions: 2 and 4 μM, data not shown
Procedure: The effect of compound 15k on the invasiveness of LOVO was tested using 24 trans-well inserts with an […]. The addition of the insert to the well forms two chambers (upper and lower), where the upper chamber was used to grow the cells on the porous membrane. The lower chamber was filled with 600 μl of cell-free DMEM medium. A 200 μl of cell suspension was added to each insert and allowed to attach for 1 h. The test compound was added in different concentrations and incubated with the cells for 24 h. […] Finally, the remaining migrated cells were fixed by methanol and dyed with 0.1% crystal violet dye and observed with an EVOS microscope. The number of migrated cells was counted and compared between the treated and control cells.
The development of cancer metastasis is dependent on the migration and invasive properties of cancerous cells (van Zijl et al., [2011]). The wound healing and transwell migration assays were used with LOVO cells, as a model for metastatic CRC as it is characterized by a high level of invasiveness (Fan et al., [2015]). The wound healing assay is a well-established method to detect and analyze cell migration potential (Liang et al., [2007]). […] The effect of compound 15k on the invasiveness of COLO 205 cell line was also measured using trans-well migration assay. […] 15j also reversed cell migration and metastasis at different concentrations.

Structure (SMILES): O=C(/C=C/c1cccc(OCc2ccccc2)c1)c1ccc(O)cc1 [Compound 15k]
- IC50 (LOVO): 2300 ± 200 nM
- IC50 (S1): 1900 ± 900 nM
- IC50 ([1]; Homo sapiens, range over HCT116, S1 and LOVO, read-out: IC50 in the CRC cells): 1000 to 2000 nM
- selectivity, CRC cells compared to normal cells ([1]; vs CRL1459 and CHO): selectively cytotoxic
- IC50 (HCT116 cells): 760 nM
- incubation time to induce apoptosis (caspase 3/7) (caspases 3 and 7; 2 μM): ≈ 24 h
- incubation time to induce apoptosis (caspase 3/7) (caspases 3 and 7; 4 and 8 μM): ≈ 10 h
- IC50 [2]: 3.6 µM
- IC50 [3]: 10.9 µM
- IC50 [4]: 13.6 µM
- trans-well migration (COLO 205 cell line): significantly inhibited the migration
